Measured values published in PMC6211260 (Journal of Enzyme Inhibition and Medicinal Chemistry, 2018).

Tests used:
Type in all cases: cell-based
T-47D cell line = experiment: NCI-60 single-dose screening; conditions: 10 µM
Protocol: (§1) Screening against the cancer cell lines was carried out at the National Cancer Institute (NCI, Bethesda, Maryland, USA) applying the standard protocol of the NCI[22].
(§2) The final target compounds were submitted to the National Cancer Institute (NCI), Maryland, USA[23]. Thirty-one compounds were selected to be tested over 60 cell lines at single dose 10 µM.

[1] = system: SK-MEL-5 melanoma cell line; experiment: NCI-60 single-dose screening; conditions: 10 µM
Protocol: as §1, §2

[2] = system: Colo 205 colon cancer cell line; experiment: NCI-60 single-dose screening; conditions: 10 µM
Protocol: as §1, §2

[3] = system: HT29 colon cancer cell line; experiment: NCI-60 single-dose screening; conditions: 10 µM
Protocol: as §1, §2

NCI-60 cell line panel = experiment: NCI-60 single-dose (10 µM) antiproliferative screening, mean over panel; conditions: single-dose 10 µM
Protocol: as §1, §2

[4] = system: OVCAR-4 ovarian cancer cell line; experiment: NCI five-dose testing; conditions: Homo sapiens
Protocol: as §1

[5] = system: MDA-MB-468 breast cancer cell line; experiment: NCI five-dose testing; conditions: Homo sapiens
Protocol: as §1

[6] = system: PC-3 prostate cancer cell line; experiment: NCI five-dose testing; conditions: Homo sapiens
Protocol: as §1

[7] = system: U251 CNS cancer cell line; experiment: NCI five-dose testing; conditions: Homo sapiens
Protocol: as §1

[8] = system: K-562 leukaemia cell line; experiment: NCI five-dose testing; conditions: Homo sapiens
Protocol: as §1

[9] = system: HOP-92 non-small cell lung cancer cell line; experiment: NCI five-dose testing; conditions: Homo sapiens
Protocol: as §1

[10] = system: SK-MEL-5 melanoma cell line; experiment: NCI five-dose testing; conditions: Homo sapiens
Protocol: as §1

[11] = system: HT-29 colon cancer cell line; experiment: NCI five-dose testing; conditions: Homo sapiens
Protocol: as §1

[12] = system: A498 renal cancer cell line; experiment: NCI five-dose testing; conditions: Homo sapiens
Protocol: as §1

Leukaemia cell lines = experiment: NCI five-dose testing, subpanel mean; conditions: subpanel I: Leukaemia
Protocol: as §1

[13] = system: ovarian cancer cell lines; experiment: NCI five-dose testing, subpanel mean; conditions: subpanel VI: ovarian cancer
Protocol: as §1

CNS cancer cell lines = experiment: NCI five-dose testing, subpanel mean; conditions: subpanel IV: CNS cancer
Protocol: as §1

colon cancer cell lines = experiment: NCI five-dose testing, subpanel mean; conditions: subpanel III: colon cancer
Protocol: as §1

renal cancer cell lines = experiment: NCI five-dose testing, subpanel mean; conditions: subpanel VII: renal cancer
Protocol: as §1

[14] = system: non-small cell lung cancer cell lines; experiment: NCI five-dose testing, subpanel mean; conditions: subpanel II: non-small cell lung cancer
Protocol: as §1

breast cancer cell lines = experiment: NCI five-dose testing, subpanel mean; conditions: subpanel IX: breast cancer
Protocol: as §1

melanoma cell lines = experiment: NCI five-dose testing, subpanel mean; conditions: subpanel V: melanoma
Protocol: as §1

[15] = system: prostate cancer cell lines; experiment: NCI five-dose testing, subpanel mean; conditions: subpanel VIII: prostate cancer
Protocol: as §1

Work on `COc1cccc(-c2nn(-c3ccccc3)cc2-c2ccnc(NCCCNS(=O)(=O)c3ccc(Br)cc3)c2)c1` [Compound 2b, 4-Bromo-N-(3-((4-(3-(3-methoxyphenyl)-1-phenyl-1H-pyrazol-4-yl)pyridin-2-yl)amino)propyl) benzenesulfonamide] yielded a per cent inhibition (T-47D cell line) of 83.30%.
`COc1cccc(-c2nn(-c3ccccc3)cc2-c2ccnc(NCCCNS(=O)(=O)c3ccc(C(F)(F)F)cc3)c2)c1` [Compound 2g, N-(3-((4-(3-(3-Methoxyphenyl)-1-phenyl-1H-pyrazol-4-yl)pyridin-2-yl)amino)propyl)-4-(trifluoromethyl)benzenesulfonamide] was tested, and the per cent inhibition [1] was “lethal effect”, the per cent inhibition [2] was “lethal effect” and the per cent inhibition [3] was “lethal effect”. The inhibition at 10 µM (NCI-60 cell line panel; 60-cancer cell line screening) was 76.5%, the “number of cell lines with more than 100% inhibition” value (NCI-60 cell line panel; NCI-60 panel) was 13 and the IC50 ([4]; OVCAR-4) was 4.36 µM. The LC50 (lethal concentration 50) ([4]; OVCAR-4, read-out: LD50 (lethal dose 50)) was greater than 100 µM, the IC (TGI) ([4]; OVCAR-4, read-out: TGI (total growth inhibition concentration)) was greater than 100 µM and the IC50 ([5]; MDA-MB-468) was 3.11 µM. For the same compound, the CC50 ([5]; MDA-MB-468, read-out: LD50 (lethal dose 50)) was greater than 100 µM, the IC (TGI) ([5]; MDA-MB-468, read-out: TGI (total growth inhibition concentration)) was greater than 100 µM and the LC50 (lethal concentration 50) ([6]; PC-3, read-out: LD50 (lethal dose 50)) was greater than 100 µM. For the same compound, the IC50 ([6]; PC-3, read-out: IC50) was 3.36 µM, the IC (TGI) ([6]; PC-3, read-out: TGI (total growth inhibition concentration)) was greater than 100 µM and the CC50 ([7]; U-251, read-out: LD50 (lethal dose 50)) was greater than 100 µM. It also gave an IC50 ([7]; U-251, U251, read-out: IC50) of 5.63 µM, an IC (TGI) ([7]; U-251, U251, read-out: TGI (total growth inhibition concentration)) greater than 100 µM and a CC50 ([8]; K562, read-out: LD50 (lethal dose 50)) greater than 100 µM. For the same compound, the IC50 ([8]; K562, K-562) was 3.06 µM, the IC (TGI) ([8]; K562, K-562, read-out: TGI (total growth inhibition concentration)) was greater than 100 µM and the IC50 ([9]; HOP-92) was 3.68 µM. The IC (TGI) ([9]; HOP-92, HOP-92, read-out: TGI (total growth inhibition concentration)) was greater than 100 µM, the LD50 (lethal dose 50) ([9]; HOP-92, read-out: LD50 (lethal dose 50)) was greater than 100 µM and the IC50 ([10]; SK-MEL-5) was 2.18 µM. For the same compound, the LC50 (lethal concentration 50) ([10]; SK-MEL-5, read-out: LD50 (lethal dose 50)) was 23.1 µM, the IC (TGI) ([10]; SK-MEL-5, read-out: TGI (total growth inhibition concentration)) was 5 µM and the CC50 ([11]; HT-29, read-out: LD50 (lethal dose 50)) was greater than 100 µM. It also gave an IC50 ([11]; HT-29, read-out: IC50) of 3.21 µM, an IC (TGI) ([11]; HT-29, read-out: TGI (total growth inhibition concentration)) of 10 µM and an IC50 ([12]; A498) of 3.8 µM. The LC50 (lethal concentration 50%) ([12]; A498, read-out: LD50 (lethal dose 50)) was greater than 100 µM, the IC (TGI) ([12]; A498, read-out: TGI (total growth inhibition concentration)) was greater than 100 µM and the IC50 (Leukaemia cell lines) was 3.35 µM. It also gave an IC50 [13] of 6.1 µM, an IC50 (CNS cancer cell lines) of 5.28 µM and an IC50 (colon cancer cell lines) of 4.91 µM. It also gave an IC50 (renal cancer cell lines) of 5.32 µM, an IC50 [14] of 6.36 µM and an IC50 (breast cancer cell lines) of 4.05 µM. It also gave an IC50 (melanoma cell lines) of 4.94 µM and an IC50 [15] of 13 µM.
